Where two headings read alike, the source gives them in different places.
Assay: Single dose clinical study: plasma Compound A pharmacokinetics
Format: in vivo, human
Details: human, plasma
Experimental: This was a single center, single dose, randomized, double blind, placebo controlled study in healthy subjects. It consisted of 4 parts: Parts A, B, C, and D. Each of the four study parts had 2 phases: Prerandomization Phase and Randomization Phase. The Prerandomization Phase lasted up to 30 days and consisted of a Screening Period and a Baseline Period, during which each subject's study eligibility was determined and baseline assessments were performed.
In Part A, there were 8 sequential cohorts of healthy adult subjects (18-50 years of age). Subjects were randomly assigned to Compound A or placebo in a ratio of 6:2, respectively. Subjects in the Compound A cohorts were treated with single ascending doses of 10, 25, 50, 100, 200, 400, 800, or 1200 mg.
In Part B, there were 4 cohorts of healthy adult subjects (18-50 years of age). There were 8 subjects in Cohort 1, with 6 subjects randomly assigned to receive single doses of Compound A (400 mg) and 2 subjects randomly assigned to receive placebo. There were 7 subjects in Cohort 2 and Cohort 3, each with 6 subjects randomly assigned to receive single doses of Compound A (100 and 200 mg, respectively) and 1 subject randomly assigned to receive placebo. The dose of 100 mg selected in Cohort 2 was based on preliminary analysis of Cohort 1 data; this dose was predicted from PK/PD modeling to achieve a sustained CSF cGMP increase from baseline of approximately 200% when administered to steady state, and thereby provided a potentially therapeutic dose for further evaluation in future studies. There were 7 subjects in Cohort 4, with 6 subjects randomly assigned to receive a single dose of Compound A (50 mg [n=3] or 75 mg [n=3]) and 1 subject randomly assigned to receive placebo. The doses for Cohorts 3 and 4 were selected based on PK/PD modeling of the data in Cohorts 1 and 2.
Subjects in Cohort 2 who had received Compound A 100 mg or placebo under fasted conditions (1st Treatment Period) also participated in an evaluation of food effect on the PK of Compound A (2nd Treatment Period). After a washout period of at least 13 days (or 5 half-lives of Compound A, whichever was longer), subjects were admitted to the clinic for baseline assessments (2nd Baseline Period) and then received a single dose of the same treatment (Compound A 100 mg or placebo) after consuming a high fat and high calorie meal over 30 minutes. Blood PK samples were collected at prespecified time points. Safety evaluations were also assessed. CSF was not collected for PD evaluation during the 2nd Treatment Period. A Follow Up Visit occurred on Day 10 of Treatment Period 2.
In Part C, there was 1 cohort of 8 healthy elderly subjects (65 to 85 years of age) randomly assigned to receive a single dose of Compound A 100 mg or placebo in a ratio of 6:2, respectively.
In Part D, 3 cohorts of healthy adult Japanese subjects were randomized in parallel. There were 7 subjects in each cohort and subjects were randomly assigned to receive single doses of Compound A (25, 100, or 400 mg) or placebo in a ratio of 6:1, respectively.
Blood samples for determination of plasma Compound A concentrations were collected from predose to 216 hours postdose. On Day 1, blood PK samples were collected at predose and postdose 0.5 (30 minutes), 1, 1.5, 2, 3, 4, 5, 6, 8, 12, and 18 hours. Thereafter, samples were collected on Day 2 (24 and 36 hours postdose), Day 3 (48 hours postdose), Day 4 (72 hours postdose), Day 5 (96 hours postdose), Day 6 (120 hours postdose), Day 7 (144 hours postdose), and Day 10 (216 hours postdose).
Blood samples for determination of plasma Compound A concentrations were collected from predose to 216 hours postdose. For all cohorts, blood PK samples were collected on Day 1 at predose and postdose at 0.5 (30 minutes), 1, 1.5, 2, 3, 4, 5, 6, 8, 10, 12, and 18 hours. […]

COc1ncc(C)c(-c2ccc3c(c2)[nH]c(=O)c2cnn([C@H]4CCOC4)c23)c1C [Compound A, (S)-7-(2-methoxy-3,5-dimethylpyridin-4-yl)-1-(tetrahydrofuran-3-yl)-1H-pyrazolo[4,3-c]quin olin-4(5H)-one]
Cmax (oral, 400 mg, non-Japanese, 400 mg, with weight as covariate, read-out: Cmax Geometric LS Means Reference): 833 ng/mL
AUC (oral, 400 mg, non-Japanese, 400 mg, without weight as covariate, read-out: AUC(O-inf) Geometric LS Means Reference): 35800 ng·h/mL
Cmax (oral, 400 mg, non-Japanese, 400 mg, without weight as covariate, read-out: Cmax Geometric LS Means Reference): 827 ng/mL
half-life (oral, single doses of 10 to 1200 mg, read-out: Mean t1/2 across all doses): 1610 to 2020 min
Tmax (oral, single doses of 10 to 1200 mg, read-out: median plasma tmax across all doses): 2 to 4 h
AUC(0-t) (po, 10 mg, healthy adults (Parts A,B), single oral 10 mg, fasted, read-out: AUC(0-24 h) GM): 719 ng·h/mL
AUC(0-t) (po, 10 mg, healthy adults (Parts A,B), single oral 10 mg, fasted, read-out: AUC(0-30 h) GM): 863 ng·h/mL
AUC(0-t) (po, 10 mg, healthy adults (Parts A,B), single oral 10 mg, fasted, read-out: AUC(0-72 h) GM): 1430 ng·h/mL
AUC(0-inf) (po, 10 mg, healthy adults (Parts A,B), single oral 10 mg, fasted, read-out: AUC(0-inf) GM): 1840 ng·h/mL
AUC(0-t) (po, 10 mg, healthy adults (Parts A,B), single oral 10 mg, fasted, read-out: AUC(0-t) GM): 1700 ng·h/mL
Cmax (po, 10 mg, healthy adults (Parts A,B), single oral 10 mg, fasted, read-out: Cmax GM): 60.2 ng/mL
Vd/F (po, 10 mg, healthy adults (Parts A,B), single oral 10 mg, fasted, read-out: Vz/F GM): 255 L
half-life (po, 10 mg, healthy adults (Parts A,B), single oral 10 mg, fasted, read-out: t1/2 Mean (converted)): 2020 min
Tmax (po, 10 mg, healthy adults (Parts A,B), single oral 10 mg, fasted, read-out: tmax Median): 2.27 h
AUC(0-inf) (po, 25 mg, Japanese Subjects (Part D), single oral 25 mg, read-out: AUC(0-inf) GM): 4580 ng·h/mL
Cmax (po, 25 mg, Japanese Subjects (Part D), single oral 25 mg, read-out: Cmax GM (% CV)): 212 ng/mL
Vd/F (po, 25 mg, Japanese Subjects (Part D), single oral 25 mg, read-out: Vz/F GM (% CV)): 165 L
half-life (po, 25 mg, Japanese Subjects (Part D), single oral 25 mg, read-out: t1/2 Mean (SD) (converted)): 1290 min
Tmax (po, 25 mg, Japanese Subjects (Part D), single oral 25 mg, read-out: tmax Median): 2.08 h
AUC(0-inf) (po, 25 mg, Non-Japanese Subjects (Parts A,B), single oral 25 mg, read-out: AUC(0-inf) GM): 4340 ng·h/mL
Cmax (po, 25 mg, Non-Japanese Subjects (Parts A,B), single oral 25 mg, read-out: Cmax GM (% CV)): 152 ng/mL
Vd/F (po, 25 mg, Non-Japanese Subjects (Parts A,B), single oral 25 mg, read-out: Vz/F GM (% CV)): 216 L
half-life (po, 25 mg, Non-Japanese Subjects (Parts A,B), single oral 25 mg, read-out: t1/2 Mean (SD) (converted)): 1610 min
Tmax (po, 25 mg, Non-Japanese Subjects (Parts A,B), single oral 25 mg, read-out: tmax Median): 2.65 h
AUC(0-t) (po, 25 mg, healthy adults (Parts A,B), single oral 25 mg, fasted, read-out: AUC(0-24 h) GM): 1850 ng·h/mL
AUC(0-t) (po, 25 mg, healthy adults (Parts A,B), single oral 25 mg, fasted, read-out: AUC(0-30 h) GM): 2200 ng·h/mL
AUC(0-t) (po, 25 mg, healthy adults (Parts A,B), single oral 25 mg, fasted, read-out: AUC(0-72 h) GM): 3570 ng·h/mL
AUC(0-inf) (po, 25 mg, healthy adults (Parts A,B), single oral 25 mg, fasted, read-out: AUC(0-inf) GM): 4340 ng·h/mL
AUC(0-t) (po, 25 mg, healthy adults (Parts A,B), single oral 25 mg, fasted, read-out: AUC(0-t) GM): 4200 ng·h/mL
Cmax (po, 25 mg, healthy adults (Parts A,B), single oral 25 mg, fasted, read-out: Cmax GM): 152 ng/mL
Vd/F (po, 25 mg, healthy adults (Parts A,B), single oral 25 mg, fasted, read-out: Vz/F GM): 216 L
half-life (po, 25 mg, healthy adults (Parts A,B), single oral 25 mg, fasted, read-out: t1/2 Mean (converted)): 1610 min
Tmax (po, 25 mg, healthy adults (Parts A,B), single oral 25 mg, fasted, read-out: tmax Median): 2.65 h
AUC(0-t) (po, 50 mg, healthy adults (Parts A,B), single oral 50 mg, fasted, read-out: AUC(0-24 h) GM): 3370 ng·h/mL
AUC(0-t) (po, 50 mg, healthy adults (Parts A,B), single oral 50 mg, fasted, read-out: AUC(0-30 h) GM): 4010 ng·h/mL
AUC(0-t) (po, 50 mg, healthy adults (Parts A,B), single oral 50 mg, fasted, read-out: AUC(0-72 h) GM): 6490 ng·h/mL
AUC(0-inf) (po, 50 mg, healthy adults (Parts A,B), single oral 50 mg, fasted, read-out: AUC(0-inf) GM): 7900 ng·h/mL
AUC(0-t) (po, 50 mg, healthy adults (Parts A,B), single oral 50 mg, fasted, read-out: AUC(0-t) GM): 7720 ng·h/mL
Cmax (po, 50 mg, healthy adults (Parts A,B), single oral 50 mg, fasted, read-out: Cmax GM): 225 ng/mL
Vd/F (po, 50 mg, healthy adults (Parts A,B), single oral 50 mg, fasted, read-out: Vz/F GM): 233 L
half-life (po, 50 mg, healthy adults (Parts A,B), single oral 50 mg, fasted, read-out: t1/2 Mean (converted)): 1610 min
Tmax (po, 50 mg, healthy adults (Parts A,B), single oral 50 mg, fasted, read-out: tmax Median): 4 h
AUC(0-t) (po, 75 mg, healthy adults (Parts A,B), single oral 75 mg, fasted, read-out: AUC(0-24 h) GM): 3650 ng·h/mL
AUC(0-t) (po, 75 mg, healthy adults (Parts A,B), single oral 75 mg, fasted, read-out: AUC(0-30 h) GM): 4460 ng·h/mL
AUC(0-t) (po, 75 mg, healthy adults (Parts A,B), single oral 75 mg, fasted, read-out: AUC(0-72 h) GM): 7880 ng·h/mL
AUC(0-inf) (po, 75 mg, healthy adults (Parts A,B), single oral 75 mg, fasted, read-out: AUC(0-inf) GM): 9880 ng·h/mL
AUC(0-t) (po, 75 mg, healthy adults (Parts A,B), single oral 75 mg, fasted, read-out: AUC(0-t) GM): 9520 ng·h/mL
Cmax (po, 75 mg, healthy adults (Parts A,B), single oral 75 mg, fasted, read-out: Cmax GM): 222 ng/mL
Vd/F (po, 75 mg, healthy adults (Parts A,B), single oral 75 mg, fasted, read-out: Vz/F GM): 308 L
half-life (po, 75 mg, healthy adults (Parts A,B), single oral 75 mg, fasted, read-out: t1/2 Mean (converted)): 1730 min
Tmax (po, 75 mg, healthy adults (Parts A,B), single oral 75 mg, fasted, read-out: tmax Median): 3 h
AUC(0-inf) (po, 100 mg, Elderly, single oral 100 mg, read-out: AUC(0-inf) Geometric LS Means Test): 21300 ng·h/mL
Cmax (po, 100 mg, Elderly, single oral 100 mg, read-out: Cmax Geometric LS Means Test): 543 ng/mL
AUC(0-inf) (po, 100 mg, Younger Adults (Parts A,B), single oral 100 mg, read-out: AUC(0-inf) Geometric LS Means Reference): 15000 ng·h/mL
Cmax (po, 100 mg, Younger Adults (Parts A,B), single oral 100 mg, read-out: Cmax Geometric LS Means Reference): 373 ng/mL
AUC(0-inf) (po, 100 mg, Japanese Subjects (Part D), single oral 100 mg, read-out: AUC(0-inf) GM): 14200 ng·h/mL

— US20220378706A1, “PHARMACEUTICAL COMPOSITION COMPRISING PDE9 INHIBITOR” (Eisai R&D Management Co., Ltd., priority 2017, published 2022)
